Reference: ChEMBL document CHEMBL1143953, “Novel 2-phenylquinolin-7-yl-derived imidazo[1,5-a]pyrazines as potent insulin-like growth factor-I receptor (IGF-IR) inhibitors” (Bioorg Med Chem, 2008)

Target: Cytochrome P450 3A4 (Homo sapiens, UniProt P08684)
Assay: Inhibition of CYP3A4
Assay type: ADME

Sequence of Cytochrome P450 3A4 (P08684 whole entry): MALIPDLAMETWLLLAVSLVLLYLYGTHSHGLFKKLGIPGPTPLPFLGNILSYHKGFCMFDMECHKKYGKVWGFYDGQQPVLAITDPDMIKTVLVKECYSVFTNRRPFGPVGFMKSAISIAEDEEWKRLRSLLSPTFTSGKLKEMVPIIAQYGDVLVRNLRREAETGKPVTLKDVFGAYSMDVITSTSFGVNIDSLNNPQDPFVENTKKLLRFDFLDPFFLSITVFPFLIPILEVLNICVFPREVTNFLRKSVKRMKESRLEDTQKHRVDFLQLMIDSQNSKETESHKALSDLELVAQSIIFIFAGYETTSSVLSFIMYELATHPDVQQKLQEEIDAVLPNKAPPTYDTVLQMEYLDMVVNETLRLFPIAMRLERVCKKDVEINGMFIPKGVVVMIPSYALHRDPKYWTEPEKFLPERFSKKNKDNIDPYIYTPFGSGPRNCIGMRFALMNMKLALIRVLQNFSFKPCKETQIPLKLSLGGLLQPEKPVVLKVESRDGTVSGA

| IC50 [µM] | SMILES |
| --- | --- |
| > 20 | Nc1nccn2c1c(-c1ccc3ccc(-c4ccccc4)nc3c1)nc2[C@H]1C[C@H](CN2CCOCC2)C1 |
| 12 | Nc1nccn2c1c(-c1ccc3ccc(-c4ccccc4)nc3c1)nc2[C@H]1C[C@@H](N2CCOCC2)C1 |
